We go through four compounds from patent publication US20110251134A1, “COMBINATION OF (A) A DNA TOPOSOMERASE INHIBITOR AND (B) AN IAP INHIBITOR” (priority 2004, published 2011).

Experiment [1] has as its system melanoma model. The experiment can be described thus: growth in a melanoma model. In kind it is cell-based.
Experiment [2] deals with caspase-3. The experiment in a line: caspase-3 activity in a breast tumor model. It counts as cell-based. The protocol:
In a breast tumor model, both compound C and topotecan (1 nM) individually increase caspase-3 activity less than two fold over the control. A nearly twelve fold increase in caspase-3 activity is seen with the same amount of compound C at a concentration of about 1 nM topotecan.

Regarding `CC[C@@]1(O)C(=O)OCc2c1cc1n(c2=O)Cc2cc3ccccc3nc2-1` [camptothecin, Camptothecin], the growth result in experiment [1] (camptothecin 5 nM alone) is recorded as “about 50 % of control”.
For the compound `CN[C@@H](C)C(=O)N[C@H](C(=O)N1CCC[C@H]1C(=O)NC(Cc1ccccc1)Cc1ccccc1)C(C)C` [compound D], the growth result in experiment [1] (compound D 250 nM alone) was “about 90 % of control”.
Turning to `CN[C@@H](C)C(=O)N[C@H](C(=O)N1C[C@@H](NC(=O)CC2CCCCC2)C[C@H]1C(=O)NCCc1ccccc1)C(C)C` [compound C], the “increase in caspase-3 activity over the control” value in experiment [2] (compound C alone) is listed as “less than two”.
Regarding `CC[C@@]1(O)C(=O)OCc2c1cc1n(c2=O)Cc2cc3c(CN(C)C)c(O)ccc3nc2-1` [topotecan], in experiment [2] (topotecan 1 nM alone), the “increase in caspase-3 activity over the control” value was “less than two”.
